Where “and” joins values, the source holds several entries; their conditions need not be identical. Equal values may be shown once.
How the values were obtained:
[1] = test system: experimental maliganancies; conditions: background; cited from earlier work
[2] = test system: Ridgeway Osteogenic Sarcoma (ROS); assay: Transplanted tumor ROS in mice, percent inhibition of tumor growth or percent prolongation of survival time; format: in vivo
Experimental: (§1) The compounds of this invention are antimitotic agents being active in tissue culture and against transplanted tumors in mice.
(§2) The following table -- Table 1 -- gives the results of several experiments in which mice bearing transplanted tumors were treated successfully with a compound of this invention. The following abbreviations are employed: Compound A is 5'-acetonylvincristine sulfate; B and C are the corresponding dehydrated hemiketal sulfate and free base; D is 4-desacetyl-5'-acetonylvincristine; GLS is Gardner lymphosarcoma; ROS is Ridgeway Osteogenic Sarcoma and CA755 is an adenocarcinoma. In the table, column 1 gives the compound designation; column 2, the abbreviation of the name of transplanted tumor; column 3, the dose level and the number of days that dosage was administered; and column 4, the percent inhibition of tumor growth or percent prolongation of survival time

[3] = test system: Gardner lymphosarcoma (GLS); assay: Transplanted tumor GLS in mice, percent inhibition of tumor growth or percent prolongation of survival time; format: in vivo
Experimental: as §1, §2

CA755 (adenocarcinoma) = assay: Transplanted tumor CA755 in mice, percent inhibition of tumor growth or percent prolongation of survival time; format: in vivo
Experimental: as §1, §2

[4] = 0.05 mg/kg × 9 days, marked *: not statistically significantly different from control
[5] = 0.3 mg/kg × 7 days, marked *: not statistically significantly different from control

## CCC1(O)CN2CCc3c([nH]c4ccccc34)C(C(=O)OC)(c3cc4c(cc3OC)N(C)C3C(O)(C(=O)OC)CC5(CC)C=CCN6CCC43C65)CC(C2)C1O (centres unmarked) [4-desacetoxy-3'-hydroxyvinblastine]
[1]
  activity in the treatment of experimental malignancies in animals: active

## CC[C@]12CN3CCc4c([nH]c5ccccc45)[C@@](C(=O)OC)(c4cc5c(cc4OC)N(C)[C@H]4[C@@](O)(C(=O)OC)[C@H](OC(C)=O)[C@]6(CC)C=CCN7CC[C@]54[C@@H]76)C[C@H](C3)[C@H]1O2 [leurosine]
[1]
  activity in the treatment of experimental malignancies in animals: active

## CC[C@]1(O)C[C@H]2CN(CCc3c([nH]c4ccccc34)[C@@](C(=O)OC)(c3cc4c(cc3OC)N(C)[C@@H]3[C@]45CCN4CC=C[C@@](CC)(C[C@]3(O)C(=O)OC)[C@H]45)C2)C1 [4-desacetoxyvinblastine]
[1]
  activity in the treatment of experimental malignancies in animals: active

## CCC12CC3CN(CCc4c([nH]c5ccccc45)C(C(=O)OC)(c4cc5c(cc4OC)N(C=O)C4C(O)(C(=O)OC)C(OC(C)=O)C6(CC)C=CCN7CCC54C76)C3)C1C=C(C)O2.O=S(=O)(O)O (centres unmarked) [B, 2",3"-dehydro-5'-acetonylvincristine 1",2"-hemiketal]
[2]; 0.1 mg/kg × 10 days
  percent inhibition of tumor growth or percent prolongation of survival time: 39%
[2]; 0.2 mg/kg × 10 days
  percent inhibition of tumor growth or percent prolongation of survival time: 26%
[2]; 0.3 mg/kg × 10 days, marked *: not statistically significantly different from control
  percent inhibition of tumor growth or percent prolongation of survival time: 14%
[2]; 0.5 mg/kg × 10 days, marked *: not statistically significantly different from control
  percent inhibition of tumor growth or percent prolongation of survival time: 0%
[2]; 1.0 mg/kg × 10 days, marked *: not statistically significantly different from control
  percent inhibition of tumor growth or percent prolongation of survival time: 0%
[3]; [4]
  percent inhibition of tumor growth or percent prolongation of survival time: 13%
[3]; 0.1 mg/kg × 7 days
  percent inhibition of tumor growth or percent prolongation of survival time: 0%
[3]; 0.1 mg/kg × 9 days, marked *: not statistically significantly different from control
  percent inhibition of tumor growth or percent prolongation of survival time: 21%
[3]; 0.2 mg/kg × 7 days, marked *: not statistically significantly different from control
  percent inhibition of tumor growth or percent prolongation of survival time: 21%
[3]; 0.2 mg/kg × 9 days, marked *: not statistically significantly different from control
  percent inhibition of tumor growth or percent prolongation of survival time: 8%
[3]; [5]
  percent inhibition of tumor growth or percent prolongation of survival time: 22% and 37%
[3]; 0.3 mg/kg × 9 days
  percent inhibition of tumor growth or percent prolongation of survival time: 36%
[3]; 0.5 mg/kg × 7 days
  percent inhibition of tumor growth or percent prolongation of survival time: 54% and 39% and 59%
[3]; 0.5 mg/kg × 9 days
  percent inhibition of tumor growth or percent prolongation of survival time: 71%
[3]; 1.0 mg/kg × 7 days
  percent inhibition of tumor growth or percent prolongation of survival time: 100% and 76% and 96%
[3]; 1.0 mg/kg × 9 days
  percent inhibition of tumor growth or percent prolongation of survival time: 93%
[3]; 5.0 mg/kg × 7 days
  percent inhibition of tumor growth or percent prolongation of survival time: 100%

## CCC1(O)CN2CCc3c([nH]c4ccccc34)C(C(=O)OC)(c3cc4c(cc3OC)N(C)C3C(O)(C(=O)OC)C(OC(C)=O)C5(CC)C=CCN6CCC43C65)CC(O)(C2)C1 (centres unmarked) [leurocolombine]
[1]
  activity in the treatment of experimental malignancies in animals: active

## CC[C@]1(O)C[C@H]2CN(CCc3c([nH]c4ccccc34)[C@@](C(=O)OC)(c3cc4c(cc3OC)N(C=O)[C@H]3[C@@](O)(C(=O)OC)[C@H](OC(C)=O)[C@]5(CC)C=CCN6CC[C@]43[C@@H]65)C2)C1 [leurocristine]
[1]
  activity in the treatment of experimental malignancies in animals: active

## CCC1(O)CC2CN(CCc3c([nH]c4ccccc34)C(C(=O)OC)(c3cc4c(cc3OC)N(C=O)C3C(O)(C(=O)OC)C(O)C5(CC)C=CCN6CCC43C65)C2)C1CC(C)=O (centres unmarked) [D, 4-desacetyl-5'-acetonylvincristine]
[3]; [5]
  percent inhibition of tumor growth or percent prolongation of survival time: 0%
[3]; 0.5 mg/kg × 7 days
  percent inhibition of tumor growth or percent prolongation of survival time: 37% and 26%
[3]; 1.0 mg/kg × 7 days
  percent inhibition of tumor growth or percent prolongation of survival time: 100% and 62%

## CCC1CC2CN(CCc3c([nH]c4ccccc34)C(C(=O)OC)(c3cc4c(cc3OC)N(C)C3C(O)(C(=O)OC)C(OC(C)=O)C5(CC)C=CCN6CCC43C65)C2)C1 (centres unmarked) [deoxy VLB "A"]
[1]
  activity in the treatment of experimental malignancies in animals: active

## CCC12CC3CN(CCc4c([nH]c5ccccc45)C(C(=O)OC)(c4cc5c(cc4OC)N(C=O)C4C(O)(C(=O)OC)C(OC(C)=O)C6(CC)C=CCN7CCC54C76)C3)C1C=C(C)O2 (centres unmarked) [C, 2",3"-dehydro-5'-acetonylvincristine 1",2"-hemiketal]
[3]; 0.5 mg/kg × 7 days
  percent inhibition of tumor growth or percent prolongation of survival time: 57%
[3]; 0.5 mg/kg × 7 days, marked *: not statistically significantly different from control
  percent inhibition of tumor growth or percent prolongation of survival time: 2%
[3]; 1.0 mg/kg × 7 days
  percent inhibition of tumor growth or percent prolongation of survival time: 100%
[3]; 1.0 mg/kg × 7 days, marked *: not statistically significantly different from control
  percent inhibition of tumor growth or percent prolongation of survival time: 5%
[3]; 5.0 mg/kg × 7 days
  percent inhibition of tumor growth or percent prolongation of survival time: 100%

## CC[C@]12CN3CCc4c([nH]c5ccccc45)[C@@](C(=O)OC)(c4cc5c(cc4OC)N(C=O)[C@H]4[C@@](O)(C(=O)OC)[C@H](OC(C)=O)[C@]6(CC)C=CCN7CC[C@]54[C@@H]76)C[C@@H](C3)[C@H]1O2 [leuroformine, N-formylleurosine]
[1]
  activity in the treatment of experimental malignancies in animals: active

## CCC1(O)CN2CCc3c([nH]c4ccccc34)C(C(=O)OC)(c3cc4c(cc3OC)N(C)C3C(O)(C(=O)OC)C(OC(C)=O)C5(CC)C=CCN6CCC43C65)CC(C2)C1O (centres unmarked) [vincadioline]
[1]
  activity in the treatment of experimental malignancies in animals: active

## CCC1(O)CC2CN(CCc3c([nH]c4ccccc34)C(C(=O)OC)(c3cc4c(cc3OC)N(C=O)C3C(O)(C(=O)OC)C(OC(C)=O)C5(CC)C=CCN6CCC43C65)C2)C1CC(C)=O.O=S(=O)(O)O (centres unmarked) [Compound A, 5'-acetonylvincristine sulfate]
[2]; 0.05 mg/kg × 10 days
  toxicity: TOXIC
[2]; 0.1 mg/kg × 10 days
  percent inhibition of tumor growth or percent prolongation of survival time: 0%
[2]; 0.2 mg/kg × 10 days
  percent inhibition of tumor growth or percent prolongation of survival time: 60%
[2]; 0.3 mg/kg × 10 days
  percent inhibition of tumor growth or percent prolongation of survival time: 34%
[2]; 0.5 mg/kg × 10 days
  toxicity: TOXIC
[2]; 1.0 mg/kg × 10 days
  toxicity: TOXIC
[3]; [4]
  percent inhibition of tumor growth or percent prolongation of survival time: 8%
[3]; 0.3 mg/kg × 7-9 days
  percent inhibition of tumor growth or percent prolongation of survival time: 39%
[3]; 0.3 mg/kg × 7-9 days, marked *: not statistically significantly different from control
  percent inhibition of tumor growth or percent prolongation of survival time: 13%
[3]; 0.5 mg/kg × 7-9 days
  percent inhibition of tumor growth or percent prolongation of survival time: 49% and 65%
[3]; 1.0 mg/kg × 7-9 days
  percent inhibition of tumor growth or percent prolongation of survival time: 81% and 86%
CA755 (adenocarcinoma); 0 mg/kg × 8 days (so in the source)
  percent inhibition of tumor growth or percent prolongation of survival time: 39%
CA755 (adenocarcinoma); 0.3 mg/kg × 8 days, marked *: not statistically significantly different from control
  percent inhibition of tumor growth or percent prolongation of survival time: 21%
CA755 (adenocarcinoma); 0.5 mg/kg × 8 days
  percent inhibition of tumor growth or percent prolongation of survival time: 39%
CA755 (adenocarcinoma); 5.0 mg/kg × 8 days
  percent inhibition of tumor growth or percent prolongation of survival time: 34%

## CC[C@@]1(O)C[C@@H]2CN(CCc3c([nH]c4ccccc34)[C@@](C(=O)OC)(c3cc4c(cc3OC)N(C)[C@H]3[C@@](O)(C(=O)OC)[C@H](OC(C)=O)[C@]5(CC)C=CCN6CC[C@]43[C@@H]65)C2)C1 [leurosidine]
[1]
  activity in the treatment of experimental malignancies in animals: active

## CC[C@]1(O)C[C@@H]2CN(CCc3c([nH]c4ccccc34)[C@@](C(=O)OC)(c3cc4c(cc3OC)N(C)[C@H]3[C@@](O)(C(=O)OC)[C@H](OC(C)=O)[C@]5(CC)C=CCN6CC[C@]43[C@@H]65)C2)C1 [VLB, vincaleukoblastine]
[1]
  activity in the treatment of experimental malignancies in animals: active
